Data from US12642271B2, “Active compound combinations comprising a (thio)carboxamide derivative and a fungicidal compound” (Bayer CropScience Aktiengesellschaft, priority 2011, dated 2026).
“And” between values parts separate entries of the source, which are not always exact repeats. Equal entries are not always repeated. Where two headings read alike, the source gives them in different places.

What was measured:
[1] = test system: Pyrenophora teres; assay: Pyrenophora teres-test (barley)/preventive; type: in vivo; conditions: preventive, evaluated 8 days after inoculation
[2] = test system: Leptosphaeria nodorum; assay: Leptosphaeria nodorum test (wheat)/preventive; type: in vivo; conditions: for pest or weed control at 80 ppm / pest or weed control at 10 ppm / pest or weed control at 40 ppm: Parastagonospora nodorum, 192 h, read-out: Efficacy in % found; for pest or weed control at 40 ppm: 40 ppm a.i.
[3] = test system: Blumeria graminis f.sp. hordei; assay: Blumeria test (barley)/preventive; type: in vivo; conditions: for pest or weed control at 20 ppm / pest or weed control at 10 ppm: Blumeria graminis, 168 h, read-out: Efficacy in % found
[4] = test system: Septoria tritici; assay: Septoria tritici-test (wheat)/preventive; type: in vivo; conditions: preventive, evaluated 21 days after inoculation
[5] = test system: Botrytis cinerea; assay: Botrytis test (beans)/preventive
Method: After the spray coating has dried on, 2 small pieces of agar covered with growth of Botrytis cinerea are placed on each leaf. The inoculated plants are placed in a darkened chamber at 20° C. and a relative atmospheric humidity of 100%. 2 days after the inoculation, the size of the lesions on the leaves is evaluated.

[6] = test system: Puccinia triticina; assay: Puccinia triticina-test (wheat)/preventive; type: in vivo; conditions: preventive, evaluated 8 days after inoculation; for Efficacy in % found: application rate 400 ppm a.i.; for pest or weed control at 20 ppm: application rate 20 ppm a.i.
[7] = test system: Sphaerotheca fuliginea; assay: Sphaerotheca test (cucumbers)/preventive; type: in vivo; conditions: for pest or weed control at 0.25 ppm / pest or weed control at 0.5 ppm: Podosphaera fuliginea, 168 h, read-out: Efficacy in % found; for pest or weed control at 0.25 ppm: 0.25 ppm a.i.; for Efficacy in % found: Table 4d
[8] = test system: Venturia inaequalis; assay: Venturia test (apples)/preventive; conditions: for pest or weed control at 0.25 ppm / pest or weed control at 0.5 ppm: Venturia inaequalis, 240 h; for pest or weed control at 0.25 ppm: 0.25 ppm a.i.
Method: After the spray coating has dried on, the plants are inoculated with an aqueous conidia suspension of the causal agent of apple scab (Venturia inaequalis) and then remain for 1 day in an incubation cabinet at approximately 20° C. and a relative atmospheric humidity of 100%.
The plants are then placed in a greenhouse at approximately 21° C. and a relative atmospheric humidity of approximately 90%.
The test is evaluated 10 days after the inoculation.

[9] = test system: Fusarium nivale (var. majus); assay: Fusarium nivale (var. majus)-test (wheat)/preventive
Method: After the spray coating has been dried, the plants are slightly injured by using a sandblast and afterwards they are sprayed with a conidia suspension of Fusarium nivale (var. majus).
The plants are placed in the greenhouse under a translucent incubation cabinet at a temperature of approximately 10° C. and a relative atmospheric humidity of approximately 100%.
The test is evaluated 5 days after the inoculation.

[10] = test system: Phytophthora infestans; assay: whole plant or invertebrate; type: in vivo
[11] = test system: Alternaria solani; assay: Alternaria test (tomatoes)/preventive; type: in vivo
[12] = Zymoseptoria tritici, 504 h, application rate 20 ppm a.i., read-out: Efficacy in % found
[13] = read-out: Efficacy in % found, Table 2b
[14] = application rate 10 ppm, wheat, preventive, evaluated 8 days after inoculation
[15] = Phytophthora infestans, 72 h, read-out: Efficacy in % found
[16] = Zymoseptoria tritici, 504 h, application rate 10 ppm a.i., read-out: Efficacy in % found
[17] = Alternaria solani, 72 h, Table 3a, 0.5 ppm a.i., read-out: Efficacy in % found
[18] = Alternaria solani, 72 h, Table 3b, read-out: Efficacy in % found
[19] = Alternaria solani, 72 h, Table 3b, 0.5 ppm, read-out: Efficacy in % found
[20] = Puccinia triticina, 192 h, read-out: Efficacy in % found

## O=C(NCCc1ncc(C(F)(F)F)cc1Cl)c1ccccc1C(F)(F)F [B2.6, fluopyram]
[1]; application rate 20 ppm a.i.
  Efficacy in % found: 57%
[2]; Table 9a, 80 ppm a.i.
  pest or weed control at 80 ppm: 0%
[2]; application rate 80 ppm, wheat, preventive, evaluated 8 days after inoculation
  pest or weed control at 80 ppm: 0%
[3]; Table 6d
  pest or weed control at 20 ppm: 11%
[4]; [12]
  pest or weed control at 20 ppm: 57%

## fludioxonil [B13.3]
[5]; Table 5a, 2.5 ppm a.i.
  Efficacy in % found: 53%
[5]; Table 5b, 0.5 ppm a.i.
  Efficacy in % found: 0%
[6]
  Efficacy in % found: 0%
[3]; Table 6e, 100 ppm a.i.
  Efficacy in % found: 0%
[3]; Table 6f, 400 ppm a.i.
  Efficacy in % found: 13%

## Cn1nc(C(F)F)c(C(=O)N(Cc2c(C(F)(F)F)ccc(Cl)c2F)C2CC2)c1F [A18, N-[3-chloro-2-fluoro-6-(trifluoromethyl)benzyl]-N-cyclopropyl-3-(difluoromethyl)-5-fluoro-1-methyl-1H-pyrazole-4-carboxamide]
[7]; Table 4c
  pest or weed control at 0.25 ppm: 13%
[8]; [13]
  pest or weed control at 0.25 ppm: 0%
[2]; [14]
  pest or weed control at 10 ppm: 0%
[6]; Puccinia triticina, 192 h, application rate 10 ppm a.i., read-out: Efficacy in % found
  pest or weed control at 10 ppm: 33%
[3]; Table 6e, 10 ppm a.i.
  pest or weed control at 10 ppm: 29%
[3]; Table 6d, 10 ppm
  pest or weed control at 10 ppm: 56%
[9]; Microdochium nivale, in Triticum aestivum, 120 h, read-out: Efficacy in % found, Table 8b, 10 ppm a.i.
  pest or weed control at 10 ppm: 43%
[10]; [15]
  pest or weed control at 0.25 ppm: 0%
  pest or weed control at 100 ppm: 32%
[4]; [16]
  pest or weed control at 10 ppm: 89%
[11]; [17]
  pest or weed control at 0.5 ppm: 30%
[11]; [18]
  pest or weed control at 0.25 ppm: 30%
[11]; [19]
  pest or weed control at 0.5 ppm: 43%

## CO/C=C(/C(=O)OC)c1ccccc1Oc1cc(Oc2ccccc2C#N)ncn1 [B3.3, azoxystrobin]
[7]; 2 ppm a.i.
  Efficacy in % found: 50%
[3]; Table 6a, 10 ppm a.i.
  Efficacy in % found: 0%
[9]; Table 8e, 40 ppm a.i.
  Efficacy in % found: 0%
[10]; Table 1b, 1 ppm a.i.
  Efficacy in % found: 50%
[4]; application rate 10 ppm a.i.
  Efficacy in % found: 29%

## Cn1cc(C(=O)Nc2ccccc2C2CC2C2CC2)c(C(F)F)n1 (stereo not drawn) [B2.22, sedaxane]
[1]; application rate 20 ppm a.i.
  Efficacy in % found: 0%
[8]; Table 2d, 0.5 ppm a.i.
  Efficacy in % found: 53%
[2]; Table 9a, 80 ppm a.i.
  Efficacy in % found: 0%
[9]; Table 8e, 80 ppm a.i.
  Efficacy in % found: 0%
[4]; application rate 20 ppm a.i.
  Efficacy in % found: 14%

## CO/N=C(/C1=NOCCO1)c1ccccc1Oc1ncnc(Oc2ccccc2Cl)c1F [B3.12, fluoxastrobin]
[8]; read-out: Efficacy in % found, Table 2b, 0.5 ppm a.i.
  pest or weed control at 0.5 ppm: 61%
[2]; Table 9a
  pest or weed control at 40 ppm: 43%
[2]; [14]
  pest or weed control at 10 ppm: 0%
[9]; Microdochium nivale, in Triticum aestivum, 120 h, read-out: Efficacy in % found, Table 8c, 10 ppm a.i.
  pest or weed control at 10 ppm: 50%
[9]; Microdochium nivale, in Triticum aestivum, 120 h, read-out: Efficacy in % found, Table 8e, 10 ppm a.i.
  pest or weed control at 10 ppm: 43%
[10]; [15]
  pest or weed control at 2 ppm: 49%
[4]; [16]
  pest or weed control at 10 ppm: 14%

## CC(C1CC1)C(O)(Cn1cncn1)c1ccc(Cl)cc1 (stereo not drawn) [B1.5, cyproconazole]
[7]; Table 4c, 0.5 ppm a.i.
  pest or weed control at 0.5 ppm: 30%
[1]; application rate 20 ppm a.i.
  Efficacy in % found: 0%
[2]; Table 9a, 80 ppm a.i.
  pest or weed control at 80 ppm: 29%
[6]; [20]
  pest or weed control at 20 ppm: 56%
[3]; Table 6d
  pest or weed control at 20 ppm: 78%
[4]; [12]
  pest or weed control at 20 ppm: 29%

## Cc1ccc(C(C)NC(=O)[C@@H](NC(=O)OC(C)C)C(C)C)cc1 (stereo partly drawn) [B9.4, iprovalicarb]
[1]; application rate 100 ppm a.i.
  Efficacy in % found: 33%
[3]; Table 6e, 100 ppm a.i.
  Efficacy in % found: 0%
[10]; Table 1a, 5 ppm a.i.
  Efficacy in % found: 48%

## CC(C)c1ccccc1CN(C(=O)c1c(C(F)F)nn(C)c1F)C1CC1 [A1, N-cyclopropyl-3-(difluoromethyl)-5-fluoro-N-(2-isopropylbenzyl)-1-methyl-1H-pyrazole-4-carboxamide]
[7]; Table 4a
  pest or weed control at 0.25 ppm: 19%
[7]; Table 4a, 0.5 ppm a.i.
  pest or weed control at 0.5 ppm: 69%
[7]; Table 4b
  pest or weed control at 0.25 ppm: 48%
[7]; Table 4c
  pest or weed control at 0.25 ppm: 21%
[8]; read-out: Efficacy in % found, Table 2a, 0.5 ppm a.i.
  pest or weed control at 0.5 ppm: 57%
[8]; [13]
  pest or weed control at 0.25 ppm: 31%
[8]; read-out: Efficacy in % found, Table 2c
  pest or weed control at 0.25 ppm: 0%
[8]; read-out: Efficacy in % found, Table 2f, 0.5 ppm a.i.
  pest or weed control at 0.5 ppm: 29%
[2]; Table 9a, 10 ppm a.i.
  pest or weed control at 10 ppm: 29%
[2]; Table 9a
  pest or weed control at 40 ppm: 71%
[2]; Table 9b, 10 ppm a.i.
  pest or weed control at 10 ppm: 0%
[2]; Table 9c, 10 ppm a.i.
  pest or weed control at 10 ppm: 50%
[6]; Puccinia triticina, 192 h, application rate 62.5 ppm a.i., read-out: Efficacy in % found
  pest or weed control at 62.5 ppm: 57%
[9]; Microdochium nivale, in Triticum aestivum, 120 h, read-out: Efficacy in % found, Table 8a, 10 ppm
  pest or weed control at 10 ppm: 0%
[9]; Microdochium nivale, in Triticum aestivum, 120 h, read-out: Efficacy in % found, Table 8a, 40 ppm
  pest or weed control at 40 ppm: 29%
[10]; [15]
  pest or weed control at 0.25 ppm: 0%
  pest or weed control at 100 ppm: 0%
[4]; [16]
  pest or weed control at 10 ppm: 50%
[11]; [17]
  pest or weed control at 0.5 ppm: 38%
[11]; [18]
  pest or weed control at 0.25 ppm: 53%
[11]; [19]
  pest or weed control at 0.5 ppm: 59%
[11]; Alternaria solani, 72 h, Table 3c, 0.5 ppm, read-out: Efficacy in % found
  pest or weed control at 0.5 ppm: 16%

## pyrimethanil [B7.7]
[5]; Table 5b, 10 ppm a.i.
  Efficacy in % found: 24%
[6]
  Efficacy in % found: 11%
[11]; Table 3b, 25 ppm
  Efficacy in % found: 26%

## Cc1nn(C)c(F)c1C(=O)Nc1ccccc1C(C)CC(C)C (stereo not drawn) [B2.20, penflufen]
[7]; 0.5 ppm a.i.
  Efficacy in % found: 0%
[1]; application rate 20 ppm a.i.
  Efficacy in % found: 29%
[2]; application rate 20 ppm, wheat, preventive, evaluated 8 days after inoculation
  Efficacy in % found: 0%
[9]; Table 8a, 20 ppm
  Efficacy in % found: 14%
[9]; Table 8b, 20 ppm a.i.
  Efficacy in % found: 29%
[4]; application rate 20 ppm a.i.
  Efficacy in % found: 29%

## OC(Cc1ccccc1Cl)(Cn1nc[nH]c1=S)C1(Cl)CC1 (stereo not drawn) [B1.41, prothioconazole]
[1]; application rate 20 ppm a.i.
  Efficacy in % found: 14% and 22%
[6]; [20]
  pest or weed control at 20 ppm: 11%
[6]; Puccinia triticina, 192 h, application rate 80 ppm a.i., read-out: Efficacy in % found
  pest or weed control at 80 ppm: 11%
[4]; Zymoseptoria tritici, 504 h, application rate 80 ppm a.i., read-out: Efficacy in % found
  pest or weed control at 80 ppm: 43%
[11]; Alternaria solani, 72 h, Table 3c, 2 ppm, read-out: Efficacy in % found
  pest or weed control at 2 ppm: 0%

## CC1(C(=O)Nc2ccc(O)c(Cl)c2Cl)CCCCC1 [B1.16, fenhexamid]
[5]; Table 5a, 2.5 ppm a.i.
  Efficacy in % found: 51%
[5]; Table 5b, 2 ppm a.i.
  Efficacy in % found: 0%
[11]; Alternaria solani, 72 h, Table 3b, 50 ppm, read-out: Efficacy in % found
  pest or weed control at 50 ppm: 22%

## metalaxyl [B12.9]
[2]; Table 9c, 100 ppm a.i.
  Efficacy in % found: 33%
[2]; application rate 400 ppm a.i., wheat, preventive, evaluated 8 days after inoculation
  Efficacy in % found: 0%
[6]
  Efficacy in % found: 11%
[10]; Table 1a, 5 ppm a.i.
  Efficacy in % found: 18%
[4]; application rate 100 ppm a.i.
  Efficacy in % found: 10%
